Assay results published in patent publication US20100113421A1, “NON-NUCLEOSIDE REVERSE TRANSCRIPTASE INHIBITORS” (priority 2006, published 2010).

Key:
[1] = tested on: HIV strain containing the Y181C mutation; assay: Spread assay, Y181C mutant strain; type: cell-based; settings: Human immunodeficiency virus 1; spread assay, 10% FBS, Y181C mutant strain; read-out: CIC95
Procedure, shortened: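 Acute HIV-1 infection of T-lymphoid cells run in the presence of 10% FBS, […]; potency expressed as CIC95.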

[2] = tested on: mutant strain containing both the K103N and Y181C mutations; assay: Spread assay, mutant strain containing both K103N and Y181C; type: cell-based, HIV; settings: Human immunodeficiency virus 1; analogous spread assay, K103N and Y181C double mutant strain; read-out: CIC95
Experimental: Assays for the inhibition of acute HIV-1 infection of T-lymphoid cells (alternatively referred to herein as the “spread assay”) were conducted in accordance with Vacca, J. P. et al., Proc. Natl. Acad. Sci. USA 1994, 91: 4096. The assays (using 10% FBS) tested for inhibition of wild type HIV-1 and of HIV strains containing the Y181C or K103N mutation. […] (Note that the compound of Example 6 was tested only up to a 833 nM concentration and the CIC95 value was determined to be >833 nM. The compound of Example 78 was not tested in the Y1818C assay.) The compounds of Examples 1 to 119 (including Examples 70A and 70B) had CIC95 values of less than 1000 nanomolar in the assay employing the K103N mutant strain. In an analogous assay employing a mutant strain containing both the K103N and Y181C mutations, the compounds of Examples 70A, 70B and 78-115 had CIC95 values of less than 1000 nanomolar.

| SMILES | IC95 [1] [µM] | IC95 [2] [µM] |
| --- | --- | --- |
| Cc1c(C(=O)N2CCCc3ccc(O)cc3C2)[nH]c(C(N)=O)c1S(=O)(=O)c1ccccc1 [Example 92, 3-(phenylsulfonyl)-4-methyl-5-(8-hydroxy-1,3,4,5-tetrahydro-2H-2-benzazepin-2-ylcarbonyl)-1H-pyrrole-2-carboxamide] | < 8 | < 1 |
| COc1ccc2c(c1)CN(C(=O)c1[nH]c(C(N)=O)c(S(=O)(=O)c3cccc(F)c3)c1C)CCC2 [Example 93, 3-[(3-fluorophenyl)sulfonyl]-4-methyl-5-(8-methoxy-1,3,4,5-tetrahydro-2H-2-benzazepin-2-ylcarbonyl)-1H-pyrrole-2-carboxamide] | < 8 | < 1 |
| Cc1c(C(=O)N2CCCc3ccc(O)cc3C2)[nH]c(C(N)=O)c1S(=O)(=O)c1cccc(F)c1 [Example 94, 3-[(3-fluorophenyl)sulfonyl]-4-methyl-5-(8-hydroxy-1,3,4,5-tetrahydro-2H-2-benzazepin-2-ylcarbonyl)-1H-pyrrole-2-carboxamide] | < 8 | < 1 |
| COc1ccc2c(c1)CN(C(=O)c1[nH]c(C(N)=O)c(S(=O)(=O)c3cccc(C(F)(F)F)c3)c1C)CCC2 [Example 95, 3-[(3-(1,1,1-trifluoromethyl)phenyl)sulfonyl]-4-methyl-5-(8-methoxy-1,3,4,5-tetrahydro-2H-2-benzazepin-2-ylcarbonyl)-1H-pyrrole-2-carboxamide] | < 8 | < 1 |
| Cc1c(C(=O)N2CCCc3sc(Cl)cc3C2)[nH]c(C(N)=O)c1S(=O)(=O)c1cc(Cl)cc(Cl)c1 [Example 96, 3-[(3,5-Dichlorophenyl)sulfonyl]-4-methyl-5-[(2-chloro-4,6,7,8-tetrahydro-5H-thieno[3,2-c]azepin-5-yl)carbonyl]-1H-pyrrole-2-carboxamide] | < 8 | < 1 |
| Cc1c(C(=O)N2CCCc3sc(S(C)(=O)=O)cc3C2)[nH]c(C(N)=O)c1S(=O)(=O)c1cc(Cl)cc(Cl)c1 [Example 97] | < 8 | < 1 |
| Cc1cc(C)cc(S(=O)(=O)c2c(C(N)=O)[nH]c(C(=O)N3CCCc4sc(S(C)(=O)=O)cc4C3)c2C)c1 [Example 98, 3-[(3,5-Dimethylphenyl)sulfonyl]-4-methyl-5-[(2-(methylsulfonyl)-4,6,7,8-tetrahydro-5H-thieno[3,2-c]azepin-5-yl)carbonyl]-1H-pyrrole-2-carboxamide] | < 8 | < 1 |
| CC(C)c1c(C(=O)N(C)Cc2ccnc(N)c2)[nH]c(C(N)=O)c1S(=O)(=O)c1cccc(F)c1 [Example 99, N5-[(2-aminopyridin-4-yl)methyl]-3-[(3-fluorophenyl)sulfonyl]-4-isopropyl-N5-methyl-1H-pyrrole-2,5-dicarboxamide] | < 8 | < 1 |
| CC(C)c1c(C(=O)N(C)Cc2ccnc(N)c2)[nH]c(C(N)=O)c1S(=O)(=O)c1cc(F)cc(F)c1 [Example 100, N5-[(2-aminopyridin-4-yl)methyl]-3-[(3,5-difluorophenyl)sulfonyl]-4-isopropyl-N5-methyl-1H-pyrrole-2,5-dicarboxamide] | < 8 | < 1 |
| CC(C)c1c(C(=O)N(C)Cc2ccnc(N)c2)[nH]c(C(N)=O)c1S(=O)(=O)c1ccccc1 [Example 101] | < 8 | < 1 |
| Cc1cc(C)cc(S(=O)(=O)c2c(C(N)=O)[nH]c(C(=O)N(C)Cc3ccnc(N)c3)c2C(C)C)c1 [Example 102, N5-[(2-aminopyridin-4-yl)methyl]-3-[(3,5-dimethylphenyl)sulfonyl]-4-isopropyl-N5-methyl-1H-pyrrole-2,5-dicarboxamide] | < 8 | < 1 |
| Cc1cc(C)cc(S(=O)(=O)c2c(C(N)=O)[nH]c(C(=O)N(C)Cc3cc(N)ncc3F)c2C)c1 [Example 103, N5-[(2-amino-5-fluoropyridin-4-yl)methyl]-3-[(3,5-dimethylphenyl)sulfonyl]-N5,4-dimethyl-1H-pyrrole-2,5-dicarboxamide] | < 8 | < 1 |
